{"source": "patent US11058772B2", "about": "“(Bacterio)chlorophyll photosensitizers for treatment of eye diseases and disorders” (Yeda Research and Development Co. Ltd., priority 2011, dated 2021)", "key": {"rabbit cornea [1]": {"test_system": "rabbit cornea", "experiment": "Ex-vivo ESR measurements of rabbit corneas", "conditions": "cornea strips, 4-POBN 65 mM, ethanol 8%", "procedure": "All ESR measurements were carried out using a Magnettech ESR Miniscope MS 100 Spectrometer (Germany), with a Microwave X-band Bridge. The ESR spectrometer operates at 9.3-9.55 GHz, 20 mW microwave power. ESR measurements were carried out at room temperature in glass capillaries or flat cells. Eyes of rabbits were enucleated post mortem. The corneas were de-epithelialized mechanically and corneal strips, 5 mm in width, were cut with a self-constructed double-blade cutter. The strips were immediately immersed for 30 min in solutions containing 4-POBN (65 mM) and ethanol (8%), and either Bchl-S or RF-D. Next, the strips were washed with saline and put in the flat-cells (0.5×5 mm^3) for NIR/UVA illumination followed by ESR measurements with the aforementioned Miniscope."}, "rabbit cornea [2]": {"test_system": "rabbit cornea", "experiment": "Stress-strain measurements of ex-vivo treated corneas", "conditions": "for Mean Young's Modulus Intensity / Mean ultimate stress Intensity: 30 min incubation then 30 min illumination (NIR for WST11, UVA for RF-D); for Mean Young's Modulus Intensity / Mean ultimate stress Intensity / Mean Young's Modulus Increase % / Mean ultimate stress Increase %: dipotassium salt; for Mean Young's Modulus Increase % / Mean ultimate stress Increase %: 30 min incubation, 30 min NIR, vs untreated fellow eyes", "procedure": "Eyes of rabbits (15-16 weeks old, weighting 3-4 Kg) were enucleated post mortem. Before enucleation, the 12 and 6 h position were marked on the sclera for preservation of subsequent cutting orientation. The corneas were de-epithelialized mechanically using a PKR scraper (Becton Dickenson, USA). Usually, about 10 rabbits were assigned to bacteriochlorophyll/NIR treatment, herein the “test group” (for example WST11/NIR), and 2 rabbits were treated by RF/UVA (herein the “RF/UVA group”) for comparison. In the test group, 10 eyes of 10 rabbits were immersed upside down for 30 minutes in test compound saline solution (Bchl-S) followed by NIR illumination (600-900 nm) with a diode laser at 10 mW/cm^2 for 30 minutes. The untreated contralateral eyes served as controls. In the RF/UVA group, RF-D solution was topically applied on 2 eyes of 2 rabbits, every 10 minutes, for 30 minutes, followed by UVA irradiation at 370 nm by a double diode at 3 mW/cm^2, for 30 minutes. After treatment, the corneo-scleral rings were removed and placed on paraffin hemisphere buttons with a matching shape to establish accurate sectioning without tissue stretching. […] The strips included 2 mm of sclera on both ends. Central corneal thickness was measured by ultrasonic pachymetry (Humphrey ultrasonic pachymeter, USA). The corneal strips were then transferred to the biomechanical tester.\n(§1) The corneal and scleral strips were clamped horizontally, at a distance of 6 mm, between the jaws of a microcomputer-controlled biomaterial tester (Minimat, Germany) with a 200 Newton force cell (FIG. 1). Controlled tightening of screws was performed with a calibrated screwdriver at a preset torque of 9 cN.m (Torqueleader, England). The strain was increased linearly at a rate of 1.0 mm/min and was measured up to tissue rupture. Young's modulus was calculated by the testing machine. Ultimate stress and Young's modulus were expressed in Mega Pascal (MPa) units.\nStress-strain measurements were conducted in 12 rabbits as described in Materials and Methods. Briefly, 10 eyes of 10 rabbits were treated by WST11/NIR, and 2 eyes of 2 rabbits were treated by RF-D/UVA. The contralateral eyes served as control."}, "rabbit sclera": {"test_system": "rabbit sclera", "experiment": "Biomechanical testing of rabbit sclera treated ex vivo, external NIR illumination", "conditions": "2.5 mg/ml 30 min, external NIR 30 min", "procedure": "The opposite side of the sclera served as control. Scleral strips, 4 mm in width, were cut at the equatorial treated area and the opposite sclera, and stress-strain measurements were performed using a biomaterial tester.\nas §1\nStress-strain tests of sclera of enucleated rabbits' eyes were performed following treatment with WST11 (2.5 mg/ml) as described in Materials and Methods. After photosensitizer impregnation, the sclera was illuminated by applying the laser beam directly onto the treated area (external illumination), using a flat optical fiber that run along a curved plastic or metal glide as shown in FIG. 17A. Strips of the sclera were cut and tested."}}}
{"smiles": "CCC1C2=Cc3c(C)c(C(=O)NCCS(=O)(=O)[O-])c4[n]3[Pd][n]3c(c(C)c(C(C)=O)c3=CC(=N2)C1C)=CC1=NC(=C4CC(=O)OC)C(CCC(=O)[O-])C1C.[K+].[K+]", "note": "(stereo not drawn) [WST11, Palladium 3^1-oxo-15-methoxycarbonylmethyl-rhodobacteriochlorin 13^1-(2-sulfoethyl)amide dipotassium salt]", "values": [{"measurement": "ESR signals of ROS trapped in the treated cornea", "setting": "rabbit cornea [1]", "result": "no traces of singlet oxygen"}, {"measurement": "Mean Young's Modulus Intensity", "setting": "rabbit cornea [2]", "result": "17.65 ± 8.25", "unit": "MPa"}, {"measurement": "Mean ultimate stress Intensity", "setting": "rabbit cornea [2]", "result": "5.98 ± 2.11", "unit": "MPa"}, {"measurement": "Mean Young's Modulus Intensity", "setting": "rabbit cornea [2]; listed as WST11-S", "result": 17.65, "unit": "MPa"}, {"measurement": "Mean ultimate stress Intensity", "setting": "rabbit cornea [2]; listed as WST11-S", "result": 5.98, "unit": "MPa"}, {"measurement": "Mean Young's Modulus Increase %", "setting": "rabbit cornea [2]", "result": 410, "unit": "%"}, {"measurement": "Mean ultimate stress Increase %", "setting": "rabbit cornea [2]", "result": 286, "unit": "%"}, {"measurement": "Mean Young's Modulus Increase %", "setting": "rabbit cornea [2]; listed as WST11-S", "result": 369, "unit": "%"}, {"measurement": "Mean ultimate stress Increase %", "setting": "rabbit cornea [2]; listed as WST11-S", "result": 267, "unit": "%"}, {"measurement": "increase in the corneal stiffness", "setting": "rabbit cornea [2]; 30 min pre-incubation then NIR, vs untreated control eyes", "result": "~3", "unit": "fold"}, {"measurement": "mean maximal stress", "setting": "rabbit sclera; control 2.77±0.99", "result": "7.6±0.99", "unit": "MPa"}, {"measurement": "mean Young's modulus", "setting": "rabbit sclera; control 15.2±7.5", "result": "45.6±3.9", "unit": "MPa"}]}
